Converted amounts (≈) assume the structure as drawn.
What was measured:
Mannheimia haemolytica = test: minimum inhibitory concentration (MIC)
Protocol: (§1)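 Broth microdilution MIC (Sensititre BOPO7F bovine plate, CLSI methods) of 19 antimicrobials against field isolates of P. multocida, M. haemolytica, H. somni (deep nasopharyngeal swabs) and E. coli, Enterococcus spp. (rectal swabs) from weaned dairy heifers. Incubation 16-24 h at 35 C. MIC is the lowest concentration preventing visible growth. Values with <= or > lie at the tested range limits. Trimethoprim-sulfamethoxazole is given as the trimethoprim component of a 1:19 mixture.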

Enterococcus spp. = test: minimum inhibitory concentration (MIC)
Protocol: as §1

CC[C@H]1OC(=O)C[C@@H](O)[C@H](C)[C@@H](O[C@@H]2O[C@H](C)[C@@H](O)[C@H](N(C)C)[C@H]2O)[C@@H](CCN2CCCCC2)C[C@@H](C)C(=O)/C=C/C(C)=C/[C@@H]1CN1CCCCC1 [Tildipirosin]
minimum inhibitory concentration [µg/mL]
Settings	Enterococcus spp.	Mannheimia haemolytica
isolate (source animal id): 2	8 (≈ 10.9 µM)	–
isolate (source animal id): 8	–	≤ 1
isolate (source animal id): 13	–	≤ 1
isolate (source animal id): 18	–	≤ 1
isolate (source animal id): 21	–	≤ 1
isolate (source animal id): 25	–	16 (≈ 21.8 µM)
isolate (source animal id): 27	–	16 (≈ 21.8 µM)
isolate (source animal id): 28	–	4 (≈ 5.45 µM)
isolate (source animal id): 30	–	≤ 1
isolate (source animal id): 31	–	4 (≈ 5.45 µM)
isolate (source animal id): 32	–	≤ 1
isolate (source animal id): 34	–	≤ 1
isolate (source animal id): 35	> 16	–
isolate (source animal id): 36	–	16 (≈ 21.8 µM)
isolate (source animal id): 37	–	16 (≈ 21.8 µM)
isolate (source animal id): 40	–	≤ 1
isolate (source animal id): 41	–	≤ 1
isolate (source animal id): 42	8 (≈ 10.9 µM)	–
isolate (source animal id): 43	–	≤ 1
isolate (source animal id): 44	16 (≈ 21.8 µM)	–
isolate (source animal id): 46	–	16 (≈ 21.8 µM)
isolate (source animal id): 49	–	16 (≈ 21.8 µM)
isolate (source animal id): 50	–	16 (≈ 21.8 µM)
isolate (source animal id): 51	–	≤ 1
isolate (source animal id): 52	–	≤ 1
isolate (source animal id): 53	–	≤ 1
isolate (source animal id): 55	–	≤ 1
isolate (source animal id): 56	–	≤ 1
isolate (source animal id): 57	–	> 16
isolate (source animal id): 79	16 (≈ 21.8 µM)	–
isolate (source animal id): 88	8 (≈ 10.9 µM)	–
isolate (source animal id): 91	8 (≈ 10.9 µM)	–
isolate (source animal id): 92	16 (≈ 21.8 µM)	–
isolate (source animal id): 100	–	16 (≈ 21.8 µM)
isolate (source animal id): 103	–	16 (≈ 21.8 µM)
isolate (source animal id): 107	–	16 (≈ 21.8 µM)
isolate (source animal id): 108	–	16 (≈ 21.8 µM)
isolate (source animal id): 111	8 (≈ 10.9 µM)	–
isolate (source animal id): 112	–	> 16
isolate (source animal id): 113	–	> 16
isolate (source animal id): 121	–	16 (≈ 21.8 µM)
isolate (source animal id): 122	> 16	2 (≈ 2.72 µM)
isolate (source animal id): 123	16 (≈ 21.8 µM)	> 16
isolate (source animal id): 126	–	> 16
isolate (source animal id): 133	8 (≈ 10.9 µM)	> 16
isolate (source animal id): 135	–	> 16
isolate (source animal id): 138	–	> 16
isolate (source animal id): 141	–	> 16
isolate (source animal id): 142	–	> 16
isolate (source animal id): 145	–	4 (≈ 5.45 µM)
isolate (source animal id): 149	–	2 (≈ 2.72 µM)
isolate (source animal id): 151	–	2 (≈ 2.72 µM)
isolate (source animal id): 152	–	16 (≈ 21.8 µM)
isolate (source animal id): 154	–	≤ 1
isolate (source animal id): 158	> 16	–
isolate (source animal id): 159	–	> 16
isolate (source animal id): 162	–	> 16
isolate (source animal id): 168	> 16	–
isolate (source animal id): 169	16 (≈ 21.8 µM)	–
isolate (source animal id): 170	–	2 (≈ 2.72 µM)
isolate (source animal id): 171	16 (≈ 21.8 µM)	≤ 1
isolate (source animal id): 172	–	2 (≈ 2.72 µM)
isolate (source animal id): 173	–	2 (≈ 2.72 µM)
isolate (source animal id): 175	> 16	–
isolate (source animal id): 177	> 16	–
isolate (source animal id): 179	–	2 (≈ 2.72 µM)
isolate (source animal id): 180	–	≤ 1
isolate (source animal id): 181	16 (≈ 21.8 µM)	–
isolate (source animal id): 182	16 (≈ 21.8 µM)	–
isolate (source animal id): 183	8 (≈ 10.9 µM)	≤ 1
isolate (source animal id): 186	–	≤ 1
isolate (source animal id): 187	16 (≈ 21.8 µM)	≤ 1
isolate (source animal id): 188	–	≤ 1
isolate (source animal id): 190	16 (≈ 21.8 µM)	≤ 1
isolate (source animal id): 191	–	2 (≈ 2.72 µM)
isolate (source animal id): 192	–	≤ 1
isolate (source animal id): 194	16 (≈ 21.8 µM)	–
isolate (source animal id): 195	16 (≈ 21.8 µM)	–
isolate (source animal id): 197	16 (≈ 21.8 µM)	–
isolate (source animal id): 201	–	2 (≈ 2.72 µM)
isolate (source animal id): 202	–	4 (≈ 5.45 µM)
isolate (source animal id): 209	–	2 (≈ 2.72 µM)
isolate (source animal id): 211	16 (≈ 21.8 µM)	2 (≈ 2.72 µM)
isolate (source animal id): 214	16 (≈ 21.8 µM)	–
isolate (source animal id): 220	–	2 (≈ 2.72 µM)
isolate (source animal id): 221	–	2 (≈ 2.72 µM)
isolate (source animal id): 222	16 (≈ 21.8 µM)	–
isolate (source animal id): 223	8 (≈ 10.9 µM)	2 (≈ 2.72 µM)
isolate (source animal id): 228	> 16	–
isolate (source animal id): 230	> 16	–
isolate (source animal id): 233	–	8 (≈ 10.9 µM)
isolate (source animal id): 235	> 16	–
isolate (source animal id): 236	8 (≈ 10.9 µM)	–
isolate (source animal id): 237	–	16 (≈ 21.8 µM)
isolate (source animal id): 239	8 (≈ 10.9 µM)	–
isolate (source animal id): 241	> 16	16 (≈ 21.8 µM)
isolate (source animal id): 244	16 (≈ 21.8 µM)	–
isolate (source animal id): 246	16 (≈ 21.8 µM)	–
isolate (source animal id): 247	> 16	–
isolate (source animal id): 250	16 (≈ 21.8 µM)	–
isolate (source animal id): 252	> 16	16 (≈ 21.8 µM)
isolate (source animal id): 253	–	16 (≈ 21.8 µM)
isolate (source animal id): 259	–	> 16
isolate (source animal id): 260	–	> 16
isolate (source animal id): 262	–	16 (≈ 21.8 µM)
isolate (source animal id): 268	> 16	–
isolate (source animal id): 282	8 (≈ 10.9 µM)	> 16
isolate (source animal id): 285	> 16	–
isolate (source animal id): 287	–	> 16
isolate (source animal id): 288	–	≤ 1
isolate (source animal id): 289	16 (≈ 21.8 µM)	–
isolate (source animal id): 290	16 (≈ 21.8 µM)	–
isolate (source animal id): 291	–	≤ 1
isolate (source animal id): 293	–	16 (≈ 21.8 µM)
isolate (source animal id): 296	16 (≈ 21.8 µM)	–
isolate (source animal id): 298	8 (≈ 10.9 µM)	> 16
isolate (source animal id): 299	–	> 16
isolate (source animal id): 300	–	≤ 1
isolate (source animal id): 301	8 (≈ 10.9 µM)	–
isolate (source animal id): 302	–	> 16
isolate (source animal id): 304	–	> 16
isolate (source animal id): 306	–	≤ 1
isolate (source animal id): 308	–	≤ 1
isolate (source animal id): 309	–	≤ 1
isolate (source animal id): 310	> 16	–
isolate (source animal id): 313	–	> 16
isolate (source animal id): 318	–	8 (≈ 10.9 µM)
isolate (source animal id): 320	8 (≈ 10.9 µM)	≤ 1
isolate (source animal id): 321	–	> 16
isolate (source animal id): 323	–	> 16
isolate (source animal id): 324	–	16 (≈ 21.8 µM)
isolate (source animal id): 326	–	> 16
isolate (source animal id): 328	–	> 16
isolate (source animal id): 329	–	> 16
isolate (source animal id): 331	8 (≈ 10.9 µM)	–
isolate (source animal id): 333	16 (≈ 21.8 µM)	> 16
isolate (source animal id): 335	–	16 (≈ 21.8 µM)
isolate (source animal id): 338	–	16 (≈ 21.8 µM)
isolate (source animal id): 341	> 16	–
